Measured values: patent publication US20210163489A1, “PYRAZOLOPYRIMIDINE DERIVATIVES AND THE COMPOSITIONS AND METHODS OF TREATMENT REGARDING THE SAME” (NysnoBio Ireland DAC, priority 2016, published 2021)

Assays:
[1] = Metabolic stability in human liver microsomes (HLM); assay type: in vitro ADME; conditions: pH 7.4, 1 μM compound, 1.0 mg/mL microsome, NADPH, read-out: HLM t1/2
Experimental: Compounds were also tested for metabolic stability in both rat liver microsomes (RLM) and human liver microsomes (HLM) and their half-life calculated (See Table 6). The assay was performed as follows. The total volume for each incubation was 250 μL. A 100 μM DMSO solution of compound (diluted from 10 mM stock solution) was spiked into 50 mM KH2PO4 (pH 7.4) buffer containing liver microsome at a concentration of 1.0 mg/mL. The reaction was initiated by the addition of 50 μL of 1 mM NADPH. The final concentration of each compound was 1 μM (1% DMSO). The positive controls, phenacetin for CYP1A2, diclofenac for CYP2C9, omeprazole for CYP2C19, dextromethorphan for CYP2D6 and midazolam for CYP3A4 were added to a separate tube with the final substrate concentrations of 1 μM (1% DMSO) for evaluating the enzyme activities in the liver microsomes. At 0, 15, 30 and 60 min, an aliquot of 15 μL reaction mixtures were removed and 200 μL of methanol (with internal standard of 25 ng/mL propranolol) was added to quench the reaction. The resulting mixture was centrifuged and supernatant was used for LC-MS/MS analysis.
The signals for each compound, or the metabolites for the probe substrates and the internal standard were integrated and the peak area ratios to internal standard were generated. Percent parent remaining at a specified timepoint was calculated based on the peak area ratios at time 0 (as 100%) for in vitro metabolic stability studies in liver microsome and hepatocyte. The observed rate constant (kobs) for the metabolism of substrates was calculated by plotting the natural log of percentage substrate remaining versus time of incubation with the slope being kobs. The half-life (T1/2) was calculated according to the following equation: […]

[2] = system: S-HeLa stably expressing a YFP-Parkin fusion protein; test: Cell rating experiments: Parkin-dependent induction of mitophagy (Tomm20 immunofluorescence); assay type: cell-based; parameters: key to Cell Ratings [Example 4] (cell activity): +++: >70% effect at 10 μM; ++: 69%-31% effect at 10 μM; +: <30% effect at 10 μM; −: negative at 10 μM; conditions: Tomm20 negative cells, 6 μM CCCP, compound at 10 μM; for activation at 10 µM: 20 h, read-out: Cell Ratings [Example 4] (cell activity); for Cell Ratings [Example 4] (cell activity): 20 hours
Experimental: Compounds: All compounds were dissolved in DMSO to a concentration of 25 mM and stored at −20° C. Compound 1 is N,N′-(1-phenyl-1H-1,2,4-triazole-3,5-diyl)dibenzamide.
Cell Culture: S-HeLa stably expressing a YFP-Parkin fusion protein (kindly donated by Prof. Richard J. Youle, Porter Neuroscience Research Center, Bethesda, Md., USA) were utilised to assess Parkin-dependent induction of mitophagy. 4000 cells were seeded in each well of a 96 well plate (Parkin Elmer ViewPlate-96 F TC, cat. N. 6005182) and left to grow for 24 hours.
Subsequently cells were incubated with vehicle (DMSO) or 6 μM CCCP for 1 hour prior to adding increasing concentrations of compound (1, 2.5, 5, 10 μM), each condition run in replicate of five. After 20 hours cells were processed for immunofluorescence.
Immunofluorescence: Samples were fixed in 4% PFA for 25 minutes RT and permeabilized with PBS 0.1% Triton-X100 for 3 minutes on ice, blocked with PBS 3% BSA, 0.3% Triton-X100 for 2 hours RT, followed by overnight incubation with primary antibody at 4° C. ([…] rabbit Tomm20 antibody FL-145; Santa Cruz Biotechnology) diluted in PBS 0.1% BSA, 0.3% Triton-X100. The secondary goat anti-rabbit antibody conjugated with DyLight 649 (Jackson ImmunoResearch) was applied for 1 hour at room temperature at a concentration of […] in conjunction with […] Hoechst33342.
Cells were imaged using an Olympus ScanR automated microscope equipped with motorised stage and 20x APO planar objective. 18 images were acquired for each well using the following combination of excitation/emission filters: Hoechst33342 was excited through a 350/50 nm band pass filter and fluorescence intensity was collected through a 460/30 band pass filter. YFP was excited through a 500/20 nm band pass filter and fluorescence intensity was collected through a 540/35 band pass filter. DyLight 649 was excited through a 640/30 nm band pass filter and fluorescence intensity was collected through 700/75 band pass filter. Images were processed and analysed as described in the Image Analysis section.
Image analysis: Images were processed and analysed using Columbus HCS Analysis software (Version 2.5.0., PerkinElmer) as follows:
Tomm20 fluorescence intensity was corrected using the parabola algorithm. Hoechst 33342 fluorescence was used to identify and count cells. Cells were segmented according to Tomm20 fluorescence intensity. Spot detection was optimized to recognize number and total cellular area of Tomm20 stained clusters (mitochondria).
Tomm20 staining intensity, spot numbers and spot area were used to train a linear classifier algorithm that discriminated between Tomm20 positive (high intensity, spot numbers and spot area) and Tomm20 negative cells (low intensity, spot numbers and spot area).
Bar graphs were generated reporting the number of Tomm20 negative cells expressed as percentage of total cells imaged for each well (FIGS. 3 and 6). Results were shown as mean ±SD of a representative experiment performed in triplicate. +++ indicates >70% effect at 10 μM; ++ indicates 69%-31% effect at 10 μM; + indicates <30% effect at 10 μM; − indicates negative at 10 μM; NA=not available.

Row | Structure (SMILES) | half-life at 1 μM [1] | activation at 10 µM [2] | Cell Ratings [Example 4] (cell activity) [2]
1 | Cc1nc2c(-c3ccccc3)c(C)nn2c(S)c1Cc1ccccc1 [Compound A, 6-benzyl-2,5-dimethyl-3-phenylpyrazolo[1,5-a]pyrimidine-7-thiol] | 1.05 h |  | 
2 | Cc1nc2c(-c3ccccc3)c(C)nn2c(S)c1Cc1ccncc1 [Compound AA, 2,5-dimethyl-3-phenyl-6-(4-pyridylmethyl)pyrazolo[1,5-a]pyrimidine-7-thiol] | 1.09 h | > 70% | 
3 | Cc1nc2c(-c3ccccc3)c(C)nn2c(S)c1Cc1ccccn1 [Compound BB, 2,5-dimethyl-3-phenyl-6-(2-pyridylmethyl)pyrazolo[1,5-a]pyrimidine-7-thiol] |  |  | −
4 | Cc1nn2c(S)c3c(nc2c1-c1ccccc1)CN(C)CC3 [Compound C3] | 2.57 h |  | 
5 | Cc1nc2c(-c3ccccc3)cnn2c(S)c1Cc1ccccc1 [Compound CC, 6-benzyl-5-methyl-3-phenyl-pyrazolo[1,5-a]pyrimidin-7-thiol] | 0.382 h | > 70% | 
6 | Cc1cc(S)n2ncc(-c3ccccc3)c2n1 [Compound C] |  | 31 to 69% | 
7 | Cc1nn2c(S)c(Cc3ccccc3)cnc2c1-c1ccccc1 [Compound DD, 6-benzyl-2-methyl-3-phenyl-pyrazolo[1,5-a]pyrimidin-7-thiol] |  | 31 to 69% | 
8 | COc1ccccc1-c1c(C)nn2c(S)cc(C)nc12 [Compound D] |  | < 30% | 
9 | Cc1cc(C)c2c(n1)nn1c(S)cc(C)nc21 [Compound E] | 2.88 h | > 70% | 
10 | CCc1nn2c(S)cc(C)nc2c1-c1ccc(F)cc1 [Compound I] |  | 31 to 69% | 
11 | Cc1nn2c(S)c3c(nc2c1-c1ccccc1)CCCC3 [Compound K] |  | 31 to 69% | 
12 | Cc1cc(S)n2ncc(-c3ccc(F)cc3)c2n1 [Compound L, 3-(4-fluorophenyl)-5-methylpyrazolo[1,5-a]pyrimidine-7-thiol] | 2.68 h | > 70% | 
13 | Cc1cc2nc(C)c(Cc3ccc(Cl)cc3)c(O)n2n1 [Compound P, 6-[(4-chlorophenyl)methyl]-2,5-dimethyl-pyrazolo[1,5-a]pyrimidin-7-ol] |  | < 30% | 
14 | Cc1cc2nc(C)c(Cc3ccc(Cl)cc3)c(S)n2n1 [Compound R, 6-[(4-chlorophenyl)methyl]-2,5-dimethyl-pyrazolo[1,5-a]pyrimidine-7-thiol] |  | < 30% | 
15 | Cc1nc2c(-c3ccccc3)cnn2c(O)c1Cc1ccccc1 [Compound U, 6-benzyl-5-methyl-3-phenyl-pyrazolo[1,5-a]pyrimidin-7-ol] |  | 31 to 69% | 
16 | Sc1c(Cc2ccccc2)cnc2c(-c3ccccc3)cnn12 [Compound Z, 6-benzyl-3-phenyl-pyrazolo[1,5-a]pyrimidin-7-thiol] |  | 31 to 69% | 
17 | Cc1nc2c(-c3ccccn3)c(C)nn2c(O)c1Cc1ccccc1 [FF] |  | < 30% | 
18 | Cc1nn2c(O)cc(C(C)(C)C)nc2c1-c1ccc(Cl)cc1 [F] |  | 31 to 69% | 
19 | CC(C)(C)c1cc(O)n2ncc(-c3ccccc3)c2n1 [J] |  | 31 to 69% | 
20 | Cc1nc2c(C(F)(F)F)c(C)nn2c(S)c1Cc1ccccc1 [LL] |  | 31 to 69% | 
21 | Cc1nc2c(-c3ccncc3)c(C)nn2c(S)c1Cc1ccccc1 [MM] |  |  | −
22 | COc1ccc(-c2cnn3c(S)cc(C)nc23)cc1 [SS] | 0.74 h |  | 
23 | Cc1cc2nc(C)c(Cc3ccccc3)c(S)n2n1 [S] |  | < 30% | 
24 | Cc1ccc(-c2cnn3c(S)cc(C)nc23)cc1 [TT] | 0.197 h |  | 
25 | Cc1nc2c(-c3ccccc3)c(C)nn2c(O)c1Cc1ccccc1 [T] |  | < 30% | 
26 | Cc1cc(S)n2ncc(-c3cccc(N(C)C)c3)c2n1 [UU] | 0.55 h |  | 
